Where two headings read alike, the source gives them in different places.

This is an account of results in patent US20100190832A1, “Mechanism-based inhibitors of transthyretin amyloidosis: studies with biphenyl ethers and structural templates” (NATIONAL INSTITUTE OF IMMUNOLOGY., priority 2008, published 2010).

The test deals with T1, WT-TTR (Homo sapiens, UniProt P02766).
T1 construct: made in house
Nature of the test: Stagnant acid-mediated TTR aggregation (fibril formation) assay, turbidity at 340 nm. The format is biochemical. The conditions noted are these: for remaining activity at 50 µM / remaining activity at 100 µM: 72 h; for remaining activity at 50 µM: read-out: % FF at 50 μM; for IC50: Table 3, WT-TTR 7.2 μM, read-out: IC50. The method, then: Stagnant Acid-Mediated TTR Aggregation Assay.
After 1 h, the samples were diluted with 0.5 ml of 200 mM sodium acetate buffer containing 100 mM KCl and 1 mM EDTA. Samples after mild vortexing were incubated at 37° C. for the desired amount of time without stirring to evaluate the efficacy of the inhibitors. The extent of aggregation was probed by turbidity measurements at 340 nm using Tecan GENios microplate reader. […] The extent of TTR fibril formation in the absence of inhibitor was defined to be 100%. […] All experiments were done in triplicate. […] The IC50 was determined by plotting mean of % inhibition vs log and fitted to sigmoid equation:
The experiments were conducted at 25° C. After 1 h, the samples were diluted with 0.5 mL of 200 mM sodium acetate buffer pH 4.4 containing 100 mM KCl and 1 mM EDTA, vortexed, and incubated at 37° C. for 72 h. […] The stoichiometry of the binding of the inhibitors was determined by HPLC as described by Green et al., N. S. Palaninathan, S, L, Sacchettini, J. e. […] Dissociation constant of binding of these compounds to TTR was determined by fluorescence titration, and data were fitted into the Adair equation for two bind mg.

The mark [1] stands for this setting: biphenyl ether 50 μM, WT-TTR 7.2 μM.
Setting [2] is: pH 4.4, compound 100 μM, WT-TTR 7.2 μM, pH 4.4, 37° C., read-out: % FF.
Where [3] appears, read: pH 4.4, compound 100 μM, WT-TTR 7.2 μM, pH 4.4, 37° C., read-out: % Inhibition.

As for `O=Cc1ccc(Oc2ccccc2)c(O)c1` [Compound 2], the remaining activity at 50 µM stood at 112%. On the same count and under the same terms, as for `COc1cc(CO)ccc1Oc1ccccc1` [Compound 3], the figure is 61.2%. Consider `COc1cc(CO)ccc1Oc1ccc([N+](=O)[O-])cc1` [Compound 15], for which the remaining activity at 50 µM under setting [1] was found to be 89.5%.

On to `COc1cc(C=O)ccc1Oc1ccc([N+](=O)[O-])cc1[N+](=O)[O-]` [Compound 16], for which the remaining activity at 50 µM under setting [1] came out at 66%. By IC50 is commonly meant the concentration that gives 50% inhibition. In the case of `O=Cc1ccc(Oc2ccc([N+](=O)[O-])cc2[N+](=O)[O-])c(O)c1` [Compound 17], the remaining activity at 50 µM came out at 40.5% and the IC50 was determined as 55 µM. For the compound `COc1cc(CCl)ccc1Oc1ccc([N+](=O)[O-])cc1[N+](=O)[O-]` [Compound 18], under setting [1], the remaining activity at 50 µM was determined as 79%. Consider `COc1cc(CO)ccc1Oc1ccc([N+](=O)[O-])cc1[N+](=O)[O-]` [Compound 19], for which the remaining activity at 50 µM is 28% and the IC50 came out at 20 µM.

With `COc1cc(COC(C)=O)ccc1Oc1ccc([N+](=O)[O-])cc1[N+](=O)[O-]` [Compound 20], the remaining activity at 50 µM under setting [1] turned out to be 69%. Take `COc1cc(C(=O)O)ccc1Oc1ccc([N+](=O)[O-])cc1[N+](=O)[O-]` [Compound 21]: the remaining activity at 50 µM is 48% and the half-inhibitory concentration (IC50) is 20 µM. Turning to `O=C(O)c1ccc(Oc2ccc([N+](=O)[O-])cc2[N+](=O)[O-])c(O)c1` [Compound 22], the remaining activity at 50 µM under setting [1] worked out at 75%. Usually inhibition stands for the drop in the measured response relative to a control, in per cent. As for `Oc1ccc(-c2nnc(S)o2)cc1` [Compound 0350-0159], the remaining activity at 100 µM under setting [2] was found to be 19.2%. Further, the inhibition at 100 µM under setting [3] came out at 80.8%. Taken in the same sequence, the figures for `Oc1ccccc1-c1nnc(S)o1` [Compound 0350-0160] were 13.8% and 86.2%. Taken in the same sequence, the figures for `Cc1ccc2nc(NC(=O)c3ccccc3O)sc2c1` [Compound 1300-0073] were 368% and 0%. The corresponding values for `Nc1nc(F)cc(Oc2ccc(F)cc2)n1` [Compound 1544-0071] are 84% and 16%. Turning to `Nc1nc(F)cc(Oc2ccccc2F)n1` [Compound 1544-0078], the remaining activity at 100 µM under setting [2] was 54.4%. For the same compound, the inhibition at 100 µM under setting [3] was 45.6%. The corresponding values for `CCc1ccc(Oc2cc(F)nc(N)n2)cc1` [Compound 1544-0079] are 10.4% and 9.71%. The corresponding values for `Nc1nc(Cl)cc(Oc2ccccc2F)n1` [Compound 1545-0131] are 52.4% and 47.6%. Taken in the same sequence, the figures for `O=C1/C(=C\c2ccc(-c3ccc(Cl)cc3)o2)SC(=S)N1c1cccc(Cl)c1` [Compound 1934-0113] were 107% and 0%. Regarding `Cc1ccccc1C1=N/C(=C\c2sccc2C)C(=O)O1` [Compound 1989-9396], the remaining activity at 100 µM under setting [2] stood at 115%. Further, the inhibition at 100 µM under setting [3] amounted to 0%.

Regarding `CCN1C(=O)/C(=C/c2ccc(N(CC)CC)cc2O)SC1=S` [Compound 1996-0170], the remaining activity at 100 µM under setting [2] came out at 177%. Moreover, the inhibition at 100 µM under setting [3] is 0%. Taken in the same sequence, the figures for `Cn1ncc(/N=C/c2ccccc2O)c1C(=O)N1CCOCC1` [Compound 2019-0006] were 50% and 50%. The corresponding values for `O=C1/C(=C\c2ccco2)SC(=S)N1c1cccc(F)c1` [Compound 2027-0159] are 340% and 0%. In the case of `O=C(O)c1cccc(-c2ccc(/C=C3\SC(=S)N(c4cccc(C(F)(F)F)c4)C3=O)o2)c1` [Compound 2027-0438], the remaining activity at 100 µM under setting [2] amounted to 449%. Moreover, the inhibition at 100 µM under setting [3] came out at 0%. As for `COc1ccc(/C=C2\SC(=S)N(c3ccc(O)cc3)C2=O)cc1` [Compound 2189-0710], under setting [2], the remaining activity at 100 µM turned out to be 281%. Further, under setting [3], the inhibition at 100 µM worked out at 0%. Taken in the same sequence, the figures for `COc1cc(/C=C2\SC(=S)N(c3ccc(O)cc3)C2=O)ccc1O` [Compound 2189-0711] were 230% and 0%.

Consider `O=C1/C(=C/c2ccc(Cl)cc2Cl)SC(=S)N1c1ccc(O)cc1` [Compound 2189-0835], for which the remaining activity at 100 µM under setting [2] is 291%. Moreover, the inhibition at 100 µM under setting [3] came out at 0%. Turning to `O=C(O)CCCCCN1C(=O)/C(=C/c2c[nH]c3ccccc23)SC1=S` [Compound 2279-3516], the remaining activity at 100 µM (pH 4.4, read-out: % FF) came out at 126%. Besides, the inhibition at 100 µM (pH 4.4) came out at 0%. For `O=[N+]([O-])c1ccc(Cl)cc1Sc1nc2ccccc2s1` [Compound 2369-0691], under setting [2], the remaining activity at 100 µM is 8.2%. Also, under setting [3], the inhibition at 100 µM was determined as 91.8%. Taken in the same sequence, the figures for `O=C1NC(=S)S/C1=C\c1ccc(-c2cc(Cl)ccc2Cl)o1` [Compound 3062-0073] were 286% and 0%. Taken in the same sequence, the figures for `Cc1ccc(/C=c2/sc3nc4ccccc4n3c2=O)cc1` [Compound 3062-0586] were 125% and 0%. The corresponding values for `O=c1/c(=C\c2ccccc2Cl)sc2nc3ccccc3n12` [Compound 3062-0592] are 71% and 29.1%. Turning to `O=C(Nc1nnc[nH]1)c1c(Cl)ccc(Cl)c1Cl` [Compound 3232-0353], the remaining activity at 100 µM under setting [2] was 11.5%. Under setting [3], the inhibition at 100 µM turned out to be 88.5%. Regarding `O=C1/C(=C\c2cccc(O)c2)SC(=S)N1c1ccc(F)cc1` [Compound 3232-1704], under setting [2], the remaining activity at 100 µM stood at 309%. Further, under setting [3], the inhibition at 100 µM was 0%. Taken in the same sequence, the figures for `Cc1nc2c(ccc3ccccc32)c(O)c1CN1CCCC1` [Compound 3453-1335] were 66.9% and 33.1%. The corresponding values for `Cc1nc2c(ccc3ccccc32)c(O)c1CN1CCOCC1` [Compound 3453-1337] are 69.6% and 30.4%. For the compound `CCCCN1CCc2nc3c(ccc4ccccc43)c(O)c2C1` [Compound 3453-1352], the remaining activity at 100 µM under setting [2] turned out to be 75.7%. Further, the inhibition at 100 µM under setting [3] worked out at 24.3%. Taken in the same sequence, the figures for `Cc1nc2c(ccc3ccccc32)c(O)c1CN(C)Cc1ccccc1` [Compound 3453-1353] were 105% and 0%.

For `Cn1c(=O)c2c(nc(Oc3ccc(-n4cnnn4)cc3)n2C)n(C)c1=O` [Compound 3615-0252], the remaining activity at 100 µM under setting [2] stood at 155%. In addition, the inhibition at 100 µM under setting [3] was 0%. The corresponding values for `Nc1cc(O)nc(SCC(=O)N2CCOCC2)n1` [Compound 3996-0165] are 112% and 0%.

Turning to `CCCCN(CC)Cc1c(C)nc2ccc(Cl)cc2c1O` [Compound 4358-1230], the remaining activity at 100 µM under setting [2] was 79.7%. Under setting [3], the inhibition at 100 µM is 20.3%.

As for `Cc1nc2ccc(Cl)cc2c(O)c1CN1CCCC1` [Compound 4358-1240], the remaining activity at 100 µM under setting [2] was determined as 81.8%. In addition, the inhibition at 100 µM under setting [3] came to 18.2%. Taken in the same sequence, the figures for `Cc1nnc2c(Oc3ccc(Cl)cc3)nc3ccccc3n12` [Compound 5001-0261] were 114% and 0%. The corresponding values for `Cc1ccc2nc(Nc3nc(O)c4ccccc4n3)nc(C)c2c1` [Compound 5594-0187] are 68.9% and 31.1%. Taken in the same sequence, the figures for `Cc1ccsc1/C=c1\sc2nc(-c3cccs3)nn2c1=O` [Compound 5629-0544] were 77.8% and 22.3%.

As for `Oc1ccc(Nc2nc(-c3ccc(Cl)cc3)nc3ccccc23)cc1` [Compound 5847-1646], the remaining activity at 100 µM under setting [2] came to 96%. The inhibition at 100 µM under setting [3] is 4.06%. For the compound `O=C1CSC(c2ccc(Cl)cc2Cl)N1c1ccc(Cl)cc1` (stereo not drawn) [Compound 8004-9890], the remaining activity at 100 µM under setting [2] is 20.3%. The inhibition at 100 µM under setting [3] came out at 79.7%. In the case of `O=C(c1cnc(Nc2ccc(F)cc2)c2ccccc12)n1ccnc1` [Compound C066-1627], the inhibition at 100 µM under setting [3] is 0%. For `O=C(O)CCc1nc(-c2cccs2)no1` [Compound C066-2523], the remaining activity at 100 µM under setting [2] amounted to 32.1%. Besides, the inhibition at 100 µM under setting [3] was 67.9%. Taken in the same sequence, the figures for `O=C(Nc1c2c(nn1-c1cccc(Cl)c1)C[S+]([O-])C2)c1ccccc1F` (stereo not drawn) [Compound C077-0215] were 89.5% and 10.4%. Regarding `O=C(Nc1c2c(nn1-c1ccc(F)cc1)C[S+]([O-])C2)c1ccccc1F` (stereo not drawn) [Compound C077-0216], the remaining activity at 100 µM under setting [2] stood at 104%. Under setting [3], the inhibition at 100 µM was 0%. The corresponding values for `COc1ccc(NC(=S)N(CCCN2CCOCC2)Cc2cccs2)cc1` [Compound C087-0783] are 102% and 0%. The corresponding values for `CCN(CC)CCCN(Cc1ccco1)C(=S)Nc1ccc(OC)cc1` [Compound C087-0785] are 107% and 0%.
